According to patent publication US20190255144A1, “SPECIFIC OLIGOPEPTIDES AS ANTI-ANGIOGENIC DRUGS” (NEURONAX, priority 2014, published 2019):

Test system: chorioallantoic membrane (CAM) vascularization
Assay: Treatments on the chorioallantoic membrane (CAM), fluorescein angiography
Assay type: in vivo, chicken embryo
Settings: impregnated sponge on CAM at ED9; oligopeptide 250 μg/mL (9 hours), VEGF 10 ng/mL
Excerpt: In fact, TSP-1 is known for inducing the apoptosis of endothelial cells. […] It is also a decisive process under certain physiological and pathological conditions (cancers in particular). This mechanism is controlled by numerous factors having either an inhibitor potential or an activator. So as to evaluate the main properties of these in vivo factors, the most common model is the CAM (chorioallantoic membrane) model from the chicken embryo (Ribatti et al., 2000). It offers the advantage of making it possible to test the pro- or anti-angiogenic factors during an active angiogenesis phase between the embryonic stages 4j and 10j. The major effects of the various molecules can therefore be evaluated in vivo. The model of the CAM can also be used in experimental tumor development. The grafting of human cancer cells onto the surface of the CAM is carried out in the 9-day embryonic stage. Three days after the grafting at ED12, the formation of a tumor is visible at the surface of the CAM. The latter can be treated topically during the 48 hours that follow this stage, and the tumors are sampled at ED14j. The fertilized eggs (Haas Poultry Farm, Strasbourg, France) are kept for 24 hours at 18° C. before the incubation is started up. […] The embryonic stages are determined from tables of Hamburger and Hamilton (H and H, 1951). […]

## VEGF
  Vascularization / microvascularization of the CAM (in words): the microvascularization is dense and comprises numerous vascular branches
